This is an account of results in publication PMC10779255, “Novel Hydroxamic Acids Containing Aryl-Substituted 1,2,4- or 1,3,4-Oxadiazole Backbones and an Investigation of Their Antibiotic Potentiation Activity” (International Journal of Molecular Sciences, 2023).

“Also recorded” adds a separate entry of the source. Bounds are passed on as bounds.

The subject of one data set is P. aeruginosa ATCC 27853. The data set is described as follows: MIC (broth microdilution) and growth curves of antibiotics in combination with 9c or 9d. As to conditions: for MIC of antibiotic alone: 24 h, broth microdilution; for time of growth inhibition in combination with nalidixic acid: 50 μM of compound + 2.15 μM nalidixic acid, growth curves; for MIC: Pseudomonas aeruginosa, ATCC27853, read-out: MIC of nalidixic acid in the presence of compound; for P. aeruginosa ATCC 27853 growth in combination with antibiotics: with nalidixic acid or rifampicin. The class given is cell-based, Pseudomonas aeruginosa. The protocol:
(§1) Escherichia coli strain MG1655 and Pseudomonas aeruginosa strain ATCC 27853 were obtained from the American Type Culture Collection (ATCC; Rockville, MD, USA). Subculturing and inoculum preparation were prepared according to the Clinical and Laboratory Standards Institute (CLSI) recommended method, M7-A9 [42], using MHA and MHB.
Minimum inhibitory concentrations (MICs) for rifampicin and nalidixic acid were determined via the modified broth microdilution method in triplicate according to CLSI guidelines M7-A9 and M100-A30 [43]. The antibiotics were serially diluted twofold in 100 μL of MHB. The bacteria inoculum was 100 μL of a 1.0 × 10^6 CFU/mL dilution in MHB. MICs for antibiotics in the presence of 9c or 9d were determined with the same method.
MIC endpoints were read after 24 h of incubation with an iMark microplate absorbance reader (Bio-Rad, Hercules, CA, USA). Growth curves of P. aeruginosa ATCC 27853 in the presence of rifampicin/nalidixic acid and 9c/9d were obtained using a multifunction microplate reader, SuperMax 3100 (ShanghaiFlash, Shanghai, China). Cells were grown in triplicate at 37 °C with aeration.
Background: Broth dilution looks for growth in wells or tubes with falling amounts of substance.

A further data set relates to HEK293 cell line. The data set can be described thus: Cytotoxicity assay (Alamar Blue). The class given is cell-based. As to conditions: HEK293 cells, 72 h exposure, mean ± SD, at least 3 independent experiments. On the procedure:
(§2) The HEK293 cell line was obtained from the ECACC (European Collection of Authenticated Cell Cultures, cat. 85120602, Salisbury, UK). The cells were grown in monolayer culture in Dulbecco’s Modified Eagle Medium (DMEM) (PanEco, Moscow, Russia) supplemented with 2 mM of L-glutamine, 1% penicillin/streptomycin (Capricorn Scientific, Ebsdorfergrund, Germany), and 10% heat-inactivated fetal bovine serum (HyClone, Cytiva, Pasching, Austria) in a humidified atmosphere of 5% CO2 and at 37 °C (Binder, Tuttlingen, Germany). For analysis, the HEK293 cells were seeded into a 96-well plate (Corning Incorporated, Corning, NY, USA) in 100 μL of complete culture medium at a final concentration of 1 × 10^4 cells/well and cultured for 24 h for proper attachment. Subsequently, the medium was removed, and cells were exposed to the test inhibitor with different concentrations for 72 h in 100 μL of fresh complete culture medium. The sensitivity of the cells to test inhibitor molecules was detected using the vital dye Alamar Blue (Invitrogen, Carlsbad, CA, USA). The Alamar Blue assay was performed according to the procedure described by O’Brien et al.. After incubation with test inhibitor molecules, 10 μL of Alamar Blue reagent was added to each well, cell culture plates were returned to a humidified incubator, and the fluorescence was read after 3 h. The plates were exposed to an excitation wavelength of 545 nm, and the emission at 600 nm was measured with the CLARIOstar Plus (BMG Labtech, Ortenberg, Germany, Software Version 5.70 R2). To determine corresponding 50% cellular cytotoxicity (CC50) values, a four-parameter sigmoidal fit curve model (GraphPad Prism 8 software) was used to measure the data.
Background: The colour change of resazurin is a common sign of viable cells or microbes.

The nature of data set [1]: Cytotoxicity assay (Alamar Blue). It is filed as cell-based. As to conditions: human, HEK293 cells, 72 h exposure, mean ± SD, at least 3 independent experiments. On the procedure:
as §2

A further data set concerns E. coli MG1655. The data set is described as follows: Growth curves of E. coli MG1655 with antibiotics, with or without LpxC inhibitors (antibiotic potentiation). For Activity: key: active (1); inactive (0). It is filed as cell-based, Escherichia coli. As to conditions: for Activity: combined action together with the antibiotic, marking used for QSAR; for potentiation of kanamycin (sensitivity of cells): kanamycin 0.62 μM; for potentiation of kanamycin (sensitivity of cells) / potentiation of rifampicin (sensitivity of cells): inhibitor 50 or 100 µM; for potentiation of kanamycin (sensitivity of cells) / potentiating activity with nalidixic acid (growth inhibition) / potentiation of rifampicin (sensitivity of cells): OD600 growth curves; for potentiating activity with nalidixic acid (growth inhibition): nalidixic acid 17.22 μM, inhibitor 50–100 µM; for potentiation of rifampicin (sensitivity of cells): rifampicin 6.08 μM; for bacteriostatic effect in the first 10 h of incubation: with antibiotic, resumption of culture growth observed subsequently. On the procedure: as §1
Growth curves were obtained with a Bioscreen C automated growth analysis system. Cultures of E. coli MG1655 were grown overnight at 37 °C, diluted 1:100 in fresh medium, inoculated into honeycomb wells in triplicate, and grown at 37 °C with maximum shaking using the platform of the Bioscreen C instrument. […] OD600 values were recorded automatically at specified times, and the means of the triplicate cultures were plotted.

Another data set deals with E. coli LpxC. As to conditions: cited from earlier work.

On to `CCn1cc(C(=O)O)c(=O)c2ccc(C)nc21` [nalidixic acid, reference compound], for which the “MIC of antibiotic alone” value in the data set with P. aeruginosa ATCC 27853 was found to be 17.22 µM.

One may read the CC50 as the concentration at which the toxic effect on the cells reaches its halfway point. A word on the melting point: it is the temperature, or range, at which the solid turns liquid. `Cn1c(-c2nnc(C(=O)NO)o2)cc2ccccc21` [Compound 36]: the melting point was 198 °C (dec.). For the same molecule, the “CC50 (HEK293)” value in the data set on HEK293 cell line was “increased toxicity”. This molecule also returned a CC50 at 72 h in data set [1] of 132 ± 23.7 µM. Besides, in the data set with E. coli MG1655, the Activity turned out to be 1, the “potentiation of kanamycin (sensitivity of cells)” value (shortened to “potentiation of kanamycin”) was “completely ineffective”, the “potentiating activity with nalidixic acid (growth inhibition)” value is given as “inhibited bacterial growth less effectively; also recorded: weak potentiating activity” and the “potentiation of rifampicin (sensitivity of cells)” value (“potentiation of rifampicin” for short) was “completely ineffective”.

On to `CCCc1cc(C2=N[C@@H](C(=O)NO)CO2)cc(OC)c1OC` [L-161,240], for which the “inhibition of E. coli LpxC” value in the data set with E. coli LpxC is recorded as “potent inhibitors”.

One may read the MIC as the lowest concentration found to suppress growth. Turning to `Cc1cccc(-c2noc(CC(=O)NO)n2)c1` [Compound 9d], the melting point is 165.4 °C (dec.). Further, the CC50 at 72 h in data set [1] came out at 176 ± 17.8 µM. In the data set on E. coli MG1655, the Activity amounted to 1, the “potentiation of kanamycin” value was “greatest potentiating activity”, the “potentiating activity with nalidixic acid (growth inhibition)” value is listed as “greatest potentiating activity” and the “potentiation of rifampicin” value is recorded as “greatest potentiating activity”. Also, the “bacteriostatic effect in the first 10 h of incubation” value with E. coli MG1655 is recorded as “powerful bacteriostatic effect”. Further, in the data set on P. aeruginosa ATCC 27853 (25 μM of compound), the “decrease of MIC of rifampicin” value is “inactive” and the “reduction of MIC of nalidixic acid” value is “ineffective”. Also, in the data set on P. aeruginosa ATCC 27853 (50 μM of compound), the “MIC of rifampicin in the presence of compound” value (“MIC of rifampicin … of compound” for short) is 0.08 µM, the “reduction of MIC of nalidixic acid” value is “four times” and the “reduction of MIC of rifampicin” value was found to be 64 times. Besides, in the data set with P. aeruginosa ATCC 27853, the “time of growth inhibition in combination with nalidixic acid” value is reported as ≤ 8 h and the “P. aeruginosa ATCC 27853 growth in combination with antibiotics” value was “significantly reduced; also recorded: best results”. Also, in the data set on P. aeruginosa ATCC 27853 (100 μM of compound), the “MIC of rifampicin … of compound” value is 0.08 µM, the “decrease of MIC of nalidixic acid” value is listed as “approximately eight-fold”, the “reduction of MIC of rifampicin” value is recorded as 64 times and the MIC stood at 2.15 µM.

On to `O=C(Cc1nc(-c2cc(F)c(F)c(F)c2)no1)NO` [Compound 9c], for which the melting point is 159.2 °C (dec.). The molecule further came in with a CC50 at 72 h in data set [1] of 189 ± 29.5 µM. For the same molecule, in the data set with E. coli MG1655, the Activity is on record as 1, the “potentiation of kanamycin” value is on record as “greatest effectiveness; also recorded: greatest potentiating activity”, the “potentiating activity with nalidixic acid (growth inhibition)” value was “greatest potentiating activity” and the “potentiation of rifampicin” value was “greatest effectiveness; also recorded: greatest potentiating activity”. The “bacteriostatic effect in the first 10 h of incubation” value in the data set with E. coli MG1655 is reported as “powerful bacteriostatic effect”. Moreover, in the data set with P. aeruginosa ATCC 27853 (25 μM of compound), the “decrease of MIC of rifampicin” value is given as “twofold” and the “reduction of MIC of nalidixic acid” value is recorded as “two times”. In addition, in the data set on P. aeruginosa ATCC 27853 (50 μM of compound), the “MIC of rifampicin … of compound” value was found to be 0.08 µM, the “reduction of MIC of nalidixic acid” value is recorded as “four times” and the “reduction of MIC of rifampicin” value turned out to be 64 times. In addition, in the data set with P. aeruginosa ATCC 27853, the “time of growth inhibition in combination with nalidixic acid” value is ≤ 14 h and the “P. aeruginosa ATCC 27853 growth in combination with antibiotics” value was “significantly reduced; also recorded: best results”. Moreover, in the data set with P. aeruginosa ATCC 27853 (100 μM of compound), the “MIC of rifampicin … of compound” value is 0.08 µM, the “decrease of MIC of nalidixic acid” value is recorded as “approximately eight-fold”, the “reduction of MIC of rifampicin” value amounted to 64 times and the MIC was 2.15 µM.

With `CO[C@H]1/C=C/O[C@@]2(C)Oc3c(C)c(O)c4c(O)c(c(/C=N/N5CCN(C)CC5)c(O)c4c3C2=O)NC(=O)/C(C)=C\C=C\[C@H](C)[C@H](O)[C@@H](C)[C@@H](O)[C@@H](C)[C@H](OC(C)=O)[C@@H]1C` [rifampicin, reference compound], in the data set on P. aeruginosa ATCC 27853, the “MIC of antibiotic alone” value stood at 4.86 µM.
